Values quoted from earlier work as cited in patent US20140107523A1, “MODEL FOR TRAUMATIC BRAIN INJURY” (University of Rochester, priority 2012, published 2014).

Test system: NMDA receptor
Conditions: rats treated with the NMDA receptor blocker; spatial learning

## N[C@@H](CCCP(=O)(O)O)C(=O)O [APV]
  performance in the Morris water maze: perform poorly
